The structures appear in SMILES notation. Counter-ions that a name gives are not always drawn.

The first experiment deals with T1, Human FAAH (Homo sapiens, UniProt O00519).
T1 construct: The full length FAAH was subcloned into the mammalian expression vector, pcDEF.neo; expressed in transfected cells
T1 sequence (O00519 1-579): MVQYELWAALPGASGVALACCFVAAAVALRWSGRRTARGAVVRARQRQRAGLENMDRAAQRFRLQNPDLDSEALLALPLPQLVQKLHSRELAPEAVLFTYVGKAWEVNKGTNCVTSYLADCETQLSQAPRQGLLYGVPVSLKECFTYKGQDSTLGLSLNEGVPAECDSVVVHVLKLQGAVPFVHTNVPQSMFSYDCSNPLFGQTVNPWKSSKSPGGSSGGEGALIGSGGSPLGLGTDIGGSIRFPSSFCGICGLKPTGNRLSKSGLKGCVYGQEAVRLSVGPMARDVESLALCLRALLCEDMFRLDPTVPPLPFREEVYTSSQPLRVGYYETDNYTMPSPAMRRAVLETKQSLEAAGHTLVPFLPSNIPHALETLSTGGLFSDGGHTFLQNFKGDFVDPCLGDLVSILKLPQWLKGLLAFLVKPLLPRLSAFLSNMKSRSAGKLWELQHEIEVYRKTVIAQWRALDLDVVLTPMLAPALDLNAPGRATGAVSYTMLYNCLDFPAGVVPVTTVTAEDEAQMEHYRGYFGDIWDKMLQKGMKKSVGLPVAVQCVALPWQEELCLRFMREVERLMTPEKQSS
As to the kind of experiment: Human FAAH lysate assay (CHO cell lysate, AAMCA fluorescent substrate). It is filed as biochemical. The following applies: human FAAH lysate; read-out: Human FAAH lysate assay: IC50. An excerpt:
To assist in assay development stable cell lines for human, murine and rat full length FAAH were developed. Human FAAH cDNA (Accession No: NM-001441.1) was purchased from Origene (Rockville, Md.). The full length FAAH was subcloned into the mammalian expression vector, pcDEF.neo, using XbaI and EcoRI restriction sites and used for stable cell line generation. CHO cells expressing FAAH were used to prepare either crude cell lysate or microsome fractions. To harvest cells, tissue culture media was decanted, the monolayer washed three times with Ca^++Mg^++ free PBS and cells recovered after 15 min in enzyme free dissociation media (Millipore Corp, Billerica, Mass.). Cells were collected by centrifuging at 2000 rpm for 15 min. and the cell pellet re-suspended with 50 mM HEPES (pH 7.4) containing 1 mM EDTA and the protease inhibitors aprotinin (1 mg/ml) and leupeptin (100 μM). […] The pellet containing FAAH-enriched microsomes was re-suspend in 50 mM HEPES, (pH 7,4) 1 mM EDTA, and any remaining DNA sheared by passage of material through a 23 gauge needle and aliquots of enzyme were store at -80° C. prior to use. […] (American Radiolabeled Chemicals; 1 mCi/ml) with FAAH (Life Sciences (1995), 56, 1999-2005 and Journal of Pharmacology and Experimented Therapeutics (1997), 283, 729-734), Analytical. Biochemistry (2003), 318, 270-5. […] Analytical. Biochemistry (2005). 343, 143-51 […] Fluorescent release as a measure of FAAH activity was monitored by reading the plate in a CytoFluor Multiplate Reader ([…]). Whole cell assay is conducted with cells harvested after rinsing tissue culture flasks three times with Ca^++Mg^++ free PBS, incubating for 10 min in Enzyme free dissociation media and centrifuging for 5 minutes at 1,000 rpm in table top centrifuge. Cells are resuspended in assay buffer at desired cell number in (4×10^4 cells/assay in 96-well format; 1×10^4 cells/assay in 384-well format) and assayed as described. […] The reaction was terminated by addition of 2 volumes of chloroform:methanol (1:1) and mixed by vortexing. […] K., et al. A fluorescence-based assay for fatty acid amide hydrolase compatible with high-throughput screening. Anal. Biochem. 343:143-51 (2005) • Wilson S. J., et l. A high-throughput-compatible assay for determining the activity of fatty acid amide hydrolase. Anal Biochem. 318:270-5 (2003).
In the case of `Cn1cc(-c2nc(-c3ccc(S(C)(=O)=O)cc3)c(Sc3ccc(Cl)cc3)n2C)cn1` [Example 134, 4-{5-[(4-chlorophenyl)sulfanyl]-1-methyl-4-[4-(methylsulfonyl)phenyl]-1H-imidazol-2-yl}-1-methyl-1H-pyrazole], the IC50 was 13.9 nM.

Take `CCOC(C)(C)c1nc(-c2ccc(-c3ncon3)cc2)c(Sc2ccc(Cl)cc2)n1C` [Example 147, 3-(4-{5-[(4-chlorophenyl)sulfanyl]-2-(2-ethoxypropan-2-yl)-1-methyl-1H-imidazol-4-yl}phenyl)-1,2,4-oxadiazole]: the IC50 was 24.4 nM.

In the case of `Cn1cnc(-c2ccc(OC(C)(C)C(O)C(F)(F)F)cc2)c1Sc1ccc(Cl)cn1` (stereo not shown) [Example 126, 3-(4-{5-[(5-chloropyridin-2-yl)thio]-1-methyl-1H-imidazol-4-yl}phenoxy)-1,1,1-trifluoro-3-methylbutan-2-ol], the IC50 is 186 nM.

Take `Cn1c(-c2ccccn2)nc(-c2ccc(-c3ccco3)cc2)c1Sc1ccc(Cl)cc1` [Example 116, 5-[(4-chlorophenyl)thio]-4-[4-(2-furyl)phenyl]-1-methyl-2-pyridin-2-yl-1H-imidazol-3-ium trifluoroacetate]: the IC50 was 17.5 nM.

`Cn1cnc(-c2ccc(OC(C)(C)C(N)=O)cc2)c1Sc1ccc(Cl)cn1` [Example 124, 2-(4-{5-[(5-chloropyridin-2-yl)thio]-1-methyl-1H-imidazol-4-yl}phenoxy)-2-methylpropanamide]: the IC50 amounted to 36 nM.

As for `CS(=O)(=O)c1ccc(-c2nc3n(c2Sc2ccc(Cl)cc2)CCC2CCCNC32)cc1` (stereo not shown) [Example 128, 3-[(4-chlorophenyl)thio]-2-[4-(methylsulfonyl)phenyl]-5,6,6a,7,8,9,10,10a-octahydroimidazo[1,2-h]-1,7-naphthyridine], the IC50 was 98 nM.

As to `CC(CO)NC(=O)c1ccc(-c2nc(-c3ccccn3)n(C)c2Sc2ccc(Cl)cc2)cc1` (stereo not shown) [Example 127, 4-{5-[(4-chlorophenyl)thio]-1-methyl-2-pyridin-2-yl-1H-imidazol-4-yl}-N-(2-hydroxy-1-methylethyl)benzamide], the IC50 is 77.9 nM.

`Cn1ccc(-c2nc(-c3ccc(-c4ncon4)cc3)c(Sc3ccc(Cl)cc3)n2C)n1` [Example 143, 3-(4-{5-[(4-chlorophenyl)sulfanyl]-1-methyl-2-(1-methyl-1H-pyrazol-3-yl)-1H-imidazol-4-yl}phenyl)-1,2,4-oxadiazole]: the IC50 is 11.7 nM.

On to `Cn1c(-c2ccn(CC(C)(C)O)n2)nc(-c2ccc(C#N)cc2)c1Sc1ccc(Cl)cc1` [Example 145, 4-{5-[(4-chlorophenyl)sulfanyl]-2-[1-(2-hydroxy-2-methylpropyl)-1H-pyrazol-3-yl]-1-methyl-1H-imidazol-4-yl}benzonitrile], for which the IC50 was 23.1 nM.

The same experiment, now with this note: human FAAH lysate; read-out: hFAAH lysate IC50.
`COC(=O)c1ccc(-c2nc3c4ncccc4ccn3c2Sc2ccc(Cl)cc2)cc1` [Example 129]: the IC50 worked out at 12.2 nM.

Regarding `CN(C)C(=O)c1ccc2cc(-c3nc(C4CC4)n(C)c3Sc3ccc(Cl)cn3)ccc2n1` [Example 132, 6-{5-[(5-chloropyridin-2-yl)thio]-2-cyclopropyl-1-methyl-1H-imidazol-4-yl}-N,N-dimethylquinoline-2-carboxamide], the IC50 came to 144 nM.

`Cn1c(-c2ccc(F)c(F)c2)nc(-c2ccc(C(C)(C)O)nc2)c1Sc1ccc(Cl)cc1F` [Example 112]: the IC50 worked out at 114 nM.

As to `Cn1c(-c2ccccn2)nc(-c2ccc(-c3ncco3)cc2)c1Sc1ccc(Cl)cn1` [Example 120], the concentration for half-maximal inhibition (IC50) stood at 26.4 nM.
